≈ marks a conversion by molar mass, not a printed value. Structures can show the parent of a compound that is named as a salt.
Key:
[1] = Concentration of saturated donor solutions applied onto the skin; assay type: physicochemical
[2] = Saturation solubilities in solvents; assay type: physicochemical
Experimental: Saturation solubilities were measured in solvents typically used for incorporating of the drug into the pressure sensitive adhesives (PSA). Additional solubilities were measured in water, Phosphate buffered saline (PBS) Buffer (acceptor medium for skin permeation) and three different donor medium. All solubilities were measured at room temperature.

[3] = test system: genes related to antigen presentation; details: mainly via the NFkB pathway; cited from earlier work

With CCN(C(=O)c1c(O)c2c(Cl)cccc2n(C)c1=O)c1ccccc1 [Laquinimod free acid] the “c of saturated solution” value ([1]; EtOH/Dodecanol 95/5, saturated solution containing solid API) was 3.49 mg/mL, the “c of saturated solution” value ([1]; EtOH/Oleic acid 85/15, saturated solution containing solid API) was 3.93 mg/mL and the “c of saturated solution” value ([1]; Propylene glycol (PG)/water 8/2, saturated solution containing solid API) was 1.22 mg/mL. The Solubility ([2]; 2-Propanol, room temperature) was 1662 µg/mL (≈ 4.66 mM), the Solubility ([2]; Acetone, room temperature) was 4884 µg/mL (≈ 13.7 mM) and the Solubility ([2]; Ethanol, room temperature) was 4098 µg/mL (≈ 11.5 mM). The Solubility ([2]; Ethanol/Dodecanol (95:5), room temperature) was 4209 µg/mL (≈ 11.8 mM), the Solubility ([2]; Ethanol/Oleic acid (85:15), room temperature) was 4785 µg/mL (≈ 13.4 mM) and the Solubility ([2]; Ethylacetate, room temperature) was 3909 µg/mL (≈ 11 mM). It also gave a Solubility ([2]; PBS pH 7.4, room temperature) of 1296 µg/mL (≈ 3.63 mM), a Solubility ([2]; Propylenglycol/water (80:20), room temperature) of 1281 µg/mL (≈ 3.59 mM) and a Solubility ([2]; Water, room temperature) of 24 µg/mL (≈ 0.0673 mM). For the same compound, the Solubility ([2]; n-Heptane, room temperature) was 0.6 µg/mL (≈ 0.00168 mM).
In the case of CCN(C(=O)c1c(O)c2c(Cl)cccc2n(C)c1=O)c1ccccc1 [laquinimod], the “effect on genes related to antigen presentation and inflammatory pathways” value [3] is listed as “induced suppression of genes related to antigen presentation and corresponding inflammatory pathways”.
With CCN(C(=O)c1c(O)c2c(Cl)cccc2n(C)c1=O)c1ccccc1 [Laquinimod Sodium Salt, Laquinimod sodium] the “c of saturated solution” value ([1]; EtOH/Dodecanol 95/5, saturated solution containing solid API, listed as Laquinimod-Na) was 1.17 mg/mL, the “c of saturated solution” value ([1]; EtOH/Oleic acid 85/15, saturated solution containing solid API, listed as Laquinimod-Na) was 4.30 mg/mL and the “c of saturated solution” value ([1]; Propylene glycol (PG)/water 8/2, saturated solution containing solid API, listed as Laquinimod-Na) was 10.00 mg/mL.
